Results from patent US11065266B2, “Method of treating melanoma using an inhibitor of an atypical protein kinase C” (UNIVERSITY OF SOUTH FLORIDA, priority 2016, dated 2021).

Key:
[1] = system: SK-MEL-2 cells; test: Growth inhibition assay (cell counts over 72 h); assay type: cell-based, human; conditions: for inhibition at 0.05 µM / inhibition at 0.1 µM / inhibition at 0.2 µM / inhibition at 0.5 µM / inhibition at 1 µM: Homo sapiens; for inhibition at 0.05 µM: 50 nM; for inhibition at 0.1 µM: 100 nM; for inhibition at 0.2 µM: 200 nM; for inhibition at 0.5 µM: 500 nM
Protocol: For the growth inhibition assays, the PCS-200-013 cells or SK-MEL-2 cells were seeded at 40,000 cells/well into 6-well-plates and treated with the respective inhibitor. Cells in each well were counted after 24 h from the time of treating with the inhibitor at the desired concentration. Each inhibitor had triplicate plates which were counted at 24th, 48th and 72nd hours after initiating the inhibitor treatment. Inhibitors were added after 24 h of seeding point. The inhibitor concentrations were none (control), 50 nM, 100 nM, 200 nM, 500 nM and 1 μM. The cells were counted using a hemocytometer. The same procedure was followed for inhibitors ICA-1, ACPD, 3,4-diamino-2,7-naphthalenedisulfonic acid DNDA and 8-hydroxy-1, 3,6-naphthalenetrisulfonic acid (ζ-Stat).
Cell growth of malignant melanoma cells was reduced by applying PKC-ι and PKC-ζ inhibitors (FIGS. 3A-3D and 4A-4B). Both PKC-ι, and PKC-ζ heavily contributed to the migration of metastasized melanoma cells and migration can be suppressed using ICA-1 and ACPD. For example, Tables 1-2 provide a summary of the percentage inhibition of growth of SK-MEL-2 cells (Table 1 for ICA-1 and Table 2 for ACPD) as a function of time over 72 h period. Both ACPD and ICA-1 have 40% effectiveness on cell proliferation inhibition at the highest concentration used. Inhibition is increased upon increasing the concentration.

[2] = system: MeWo cells; test: WST-1 assay for cell viability and cytotoxicity; assay type: cell-based, human; conditions: treated at IC50, 3 days
Protocol: (§1) Approximately 4×10^3 cells (PCS-200-013, SK-MEL-2 and MeWo) were cultured in a 96 well plate. […] This IC50 was obtained based on the cell viability counts in the previous experiments. Additional doses of sterile water or inhibitor were supplied every 24 h during 3 day incubation period. At the end of 3 day treatment, media were removed and fresh media (100 μL) were added with 4-[3-(4-iodophenyl)-2-(4-nitropheny))-2H-5-tetrazolio]-1,3-benzene disulfonate (WST-1) reagent (10 μL) to each well. The absorbance was measured at 450 nm for every 0.5 hour up to 3 hours using the Synergy HT microplate reader from Biotek (Winooski, Vt.).
WST-1 assay was performed to determine the in-vitro cytotoxicity of ACPD and DNDA on normal and malignant cell lines. Measured absorbance at 450 nm is directly proportional to the number of cells present. Cells produce a water soluble formazan with WST-1 as a result of their mitochondrial dehydrogenase activity. WST-1 assay is preferred over 3-(4,S-Dimethyl-2-thiazolyl)-2, 5-diphenyl-2Htetrazolium bromide (MTT) test since MTT needs to add acidic isopropanol to dissolve formazan which gives an additional toxicity to cells.

[3] = system: other PKC isoforms; conditions: cited from earlier work
[4] = system: malignant melanoma cells (SK-MEL-2 and MeWo); test: WST-1 assay, ζ-Stat; assay type: cell-based, human; conditions: 2.5 μM
Protocol: as §1
Cell proliferation was measured using WST-1 assay for SK-MEL-2 (FIG. 16A) and MeWo (FIG. 16b). Absorbance at 450 nm due to production of water soluble formazan was measured as a function of time and the absorbance is directly proportional to the number of cells. The experimental concentration for ζ-Stat was 2.5 μM. N=3 experiments were performed for each cell line and mean±SD are plotted.

Row | Compound | inhibition at 0.05 µM ([1]; SK-MEL-2, 24 h, Day 1) [%] | inhibition at 0.1 µM ([1]; SK-MEL-2, 24 h, Day 1) [%] | inhibition at 0.2 µM ([1]; SK-MEL-2, 24 h, Day 1) [%] | inhibition at 0.5 µM ([1]; SK-MEL-2, 24 h, Day 1) [%] | inhibition at 1 µM ([1]; SK-MEL-2, 24 h, Day 1) [%] | inhibition at 0.05 µM ([1]; SK-MEL-2, 48 h, Day 2) [%] | inhibition at 0.1 µM ([1]; SK-MEL-2, 48 h, Day 2) [%] | inhibition at 0.2 µM ([1]; SK-MEL-2, 48 h, Day 2) [%] | inhibition at 0.5 µM ([1]; SK-MEL-2, 48 h, Day 2) [%] | inhibition at 1 µM ([1]; SK-MEL-2, 48 h, Day 2) [%] | inhibition at 0.05 µM ([1]; SK-MEL-2, 72 h, Day 3) [%] | inhibition at 0.1 µM ([1]; SK-MEL-2, 72 h, Day 3) [%] | inhibition at 0.2 µM ([1]; SK-MEL-2, 72 h, Day 3) [%] | inhibition at 0.5 µM ([1]; SK-MEL-2, 72 h, Day 3) [%] | inhibition at 1 µM ([1]; SK-MEL-2, 72 h, Day 3) [%] | effectiveness on cell proliferation inhibition ([1]; at the highest concentration used) [%] | WST-1 absorbance at 450 nm, effect [2] | effect on other PKC isoforms [3] | toxicity according to the WST-1 assay [4]
1 | CC(=O)C1=C(O)CCC1=O [ACPD, 2-acetyl-1,3-cyclopentanedione] | 1 | 11 | 19 | 26 | 36 | 4 | 10 | 23 | 30 | 35 | 5 | 9 | 20 | 26 | 37 | 40 | did not show a significant effect | without affecting | 
2 | O=S(=O)(O)c1cc(O)c2c(S(=O)(=O)O)cc(S(=O)(=O)O)cc2c1 [ζ-Stat, 8-hydroxy-1,3,6-naphthalenetrisulfonic acid] |  |  |  |  |  |  |  |  |  |  |  |  |  |  |  |  |  |  | did not show toxicity
